For 14 molecules, Ki, Kd and IC50 results are on record in ChEMBL document CHEMBL5338729, “E3 Ligases Meet Their Match: Fragment-Based Approaches to Discover New E3 Ligands and to Unravel E3 Biology” (J Med Chem, 2023).

One assay has as its target Protein cereblon (Homo sapiens, UniProt Q96SW2). Nature of the assay: Binding affinity to CRBN (unknown origin) assessed as inhibition constant by FRET assay.
Assay [1] can be described thus: Binding affinity to RING1B-BMI1 (unknown origin). Set-up: species or system Homo sapiens.
Assay [2] in a line: Inhibition of RING1B-BMI1 (unknown origin). Details: species or system Homo sapiens.
Assay [3] deals with T1, E3 ubiquitin-protein ligase RNF4 (Homo sapiens, UniProt P78317).
T1 sequence (P78317 whole entry): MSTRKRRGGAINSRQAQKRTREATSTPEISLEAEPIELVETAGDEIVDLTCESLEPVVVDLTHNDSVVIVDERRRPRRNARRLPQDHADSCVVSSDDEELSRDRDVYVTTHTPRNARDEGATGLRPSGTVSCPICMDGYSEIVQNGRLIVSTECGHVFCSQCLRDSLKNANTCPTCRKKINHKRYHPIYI
The experiment in a line: Inhibition of human recombinant RNF4 incubated for 30 mins by SDS-PAGE based densitometry.

In assay [4] the target is von Hippel-Lindau disease tumor suppressor (Homo sapiens, UniProt P40337). The experiment in a line: Binding affinity to VHL (unknown origin) assessed as dissociation constant by isothermal titration calorimetry assay. (ITC needs no label: the signal is the heat of the interaction.)
Assay [5] concerns the target T2, E3 ubiquitin-protein ligase RNF31 (Homo sapiens, UniProt Q96EP0).
T2 sequence (Q96EP0 whole entry): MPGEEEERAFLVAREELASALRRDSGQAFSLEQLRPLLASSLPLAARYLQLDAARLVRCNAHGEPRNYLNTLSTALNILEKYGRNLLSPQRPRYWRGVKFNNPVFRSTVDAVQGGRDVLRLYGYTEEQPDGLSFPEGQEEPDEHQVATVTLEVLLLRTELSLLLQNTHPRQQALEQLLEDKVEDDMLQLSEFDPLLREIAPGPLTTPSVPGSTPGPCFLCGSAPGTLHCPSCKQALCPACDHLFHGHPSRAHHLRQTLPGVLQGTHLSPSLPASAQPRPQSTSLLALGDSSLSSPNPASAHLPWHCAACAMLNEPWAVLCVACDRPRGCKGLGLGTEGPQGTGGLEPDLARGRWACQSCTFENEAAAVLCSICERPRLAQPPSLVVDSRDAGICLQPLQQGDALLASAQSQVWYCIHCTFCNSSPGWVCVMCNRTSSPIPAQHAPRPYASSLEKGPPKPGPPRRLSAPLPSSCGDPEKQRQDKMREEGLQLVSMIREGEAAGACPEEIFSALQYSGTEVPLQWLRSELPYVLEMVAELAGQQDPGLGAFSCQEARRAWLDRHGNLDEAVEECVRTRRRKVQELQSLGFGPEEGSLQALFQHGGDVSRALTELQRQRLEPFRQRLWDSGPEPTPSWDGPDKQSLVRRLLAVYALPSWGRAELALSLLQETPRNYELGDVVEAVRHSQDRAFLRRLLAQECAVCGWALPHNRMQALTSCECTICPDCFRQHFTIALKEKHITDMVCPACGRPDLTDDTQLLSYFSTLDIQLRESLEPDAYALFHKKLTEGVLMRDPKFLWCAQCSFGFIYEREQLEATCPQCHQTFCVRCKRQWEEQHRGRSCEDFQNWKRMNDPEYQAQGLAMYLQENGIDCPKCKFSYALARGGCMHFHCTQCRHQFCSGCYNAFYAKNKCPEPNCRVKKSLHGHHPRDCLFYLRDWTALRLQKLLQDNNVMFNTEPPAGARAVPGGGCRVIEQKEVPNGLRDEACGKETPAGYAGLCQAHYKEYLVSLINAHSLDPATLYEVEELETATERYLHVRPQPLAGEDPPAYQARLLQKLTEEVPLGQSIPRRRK
Nature of the assay: Binding affinity to HOIP (unknown origin) assessed as dissociation constant.

SMILES strings stand for the structures. pIC50, pKd, pKi: −log10 of the molar value.

Chain of Protein cereblon (Q96SW2 whole entry): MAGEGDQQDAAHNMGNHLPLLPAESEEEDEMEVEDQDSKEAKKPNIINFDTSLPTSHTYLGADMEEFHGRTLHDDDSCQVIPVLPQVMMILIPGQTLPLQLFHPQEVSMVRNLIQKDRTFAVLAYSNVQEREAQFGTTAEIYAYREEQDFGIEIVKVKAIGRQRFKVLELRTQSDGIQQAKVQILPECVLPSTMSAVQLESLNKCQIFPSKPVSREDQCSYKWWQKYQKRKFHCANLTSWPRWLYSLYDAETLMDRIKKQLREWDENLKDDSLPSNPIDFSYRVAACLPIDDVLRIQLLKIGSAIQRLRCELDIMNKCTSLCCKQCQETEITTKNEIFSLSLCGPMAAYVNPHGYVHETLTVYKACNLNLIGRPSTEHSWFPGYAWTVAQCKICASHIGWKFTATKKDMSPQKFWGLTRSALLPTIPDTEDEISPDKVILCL
Chain of von Hippel-Lindau disease tumor suppressor (P40337 whole entry): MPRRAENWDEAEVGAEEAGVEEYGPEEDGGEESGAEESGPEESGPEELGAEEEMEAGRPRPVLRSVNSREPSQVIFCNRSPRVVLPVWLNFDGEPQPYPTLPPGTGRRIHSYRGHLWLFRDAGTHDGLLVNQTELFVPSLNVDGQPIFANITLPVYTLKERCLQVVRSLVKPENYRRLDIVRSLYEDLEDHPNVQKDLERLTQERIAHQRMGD

In the case of `O=C1CCN1`, the pKi at Protein cereblon was 4.11.

Take `CC(C)c1c(-c2cccc3[nH]ccc23)[nH]c(C(=O)O)c1-c1c(Cl)ccc2[nH]ccc12`: in assay [1], the pKd is 5.55. In addition, the pIC50 in assay [2] was 5.80.

`O=C1CCNC(=O)N1`: the pKi on Protein cereblon was 4.06.

Regarding `O=c1cc[nH]c(=O)[nH]1` [URACIL], at Protein cereblon, the pKi is 4.46.

`O=C(CCl)Nc1ccc(Oc2ccccc2)cc1`: the pIC50 in assay [3] is 5.00.

With `O=C1CCSc2ccc(Cl)cc21`, in assay [4], the pKd is 2.17.

On to `O=C1CNC(=O)N1` [HYDANTOIN], for which the pKi on Protein cereblon is 4.37.

With `CCc1c(-c2cccc3[nH]ccc23)[nH]c(C(=O)O)c1-c1ccccc1Cl`, in assay [1], the pKd is 4.94. The molecule also showed a pIC50 in assay [2] of 4.92.

In the case of `O=C1CCCCN1`, the pKi on Protein cereblon was 3.84.

Turning to `OCc1ccc(-n2cccc2)cc1`, in assay [4], the pKd is 2.30.

With `O=C1CCC(=O)N1` [SUCCINIMIDE], the pKi on Protein cereblon is 5.37.

As to `CC(=O)NC(N)=O`, on Protein cereblon, the pKi is 3.28.

Consider `COC(=O)/C=C/CNC(=O)c1cc2c([nH]c1=O)CCC2`, for which the pKd in assay [5] is less than 3.40.

On to `O=C(O)c1ccc(-c2ccccc2)s1`, for which, in assay [1], the pKd was approximately 2.15.

Usually pKi stands for the negative decadic logarithm of the Ki, by convention in mol/L. As a reminder, the pKd is −log10 of the Kd, conventionally taken in molar units. The term pIC50 denotes the IC50 on a negative log10 scale, so that one unit is a factor of ten.
